# Assay results from publication PMC6943751 (The Journal of infectious diseases, 2014).
# Biological target: Neuraminidase (NA) of A/Bethesda/956/2006, NA-R292K (Influenza A virus, UniProt F1KL32, R292K)
# Assay type: biochemical, influenza A(H3N2) virus
compound,measurement,setting,value
"CCC(CC)[C@H](NC(C)=O)[C@@H]1[C@H](O)[C@@H](C(=O)O)C[C@H]1N=C(N)N [Peramivir, peramivir]",Fold-Difference of IC50 compared with the IC50 of WT virus,,16.27 ± 0.89 (71) fold
same,IC50,"read-out: IC50, nM ± SD",16.3 nM
